# Measurements as given in patent US20170304336A1, “COMBINATION” (priority 2014, published 2017).
# Key:
# Format in all cases: in vivo, male rats of Wistar line
# [1] = Mass coefficients of organs (pancreas, liver, kidneys) of rats; conditions: M ± m; for weight coefficient, Kidneys / weight coefficient, Liver: in %
# Procedure: To calculate mass coefficients the pancreas, liver and kidneys of the animals were extracted. The organs were weighed and the mass coefficients were calculated by the following formula:
# Mass coefficient=(organ weight/animal body weight)×100%
# [2] = test system: experimental rat hypercholesterolemia model; assay: Biochemical blood analysis (drug toxicity parameters) in rat hypercholesterolemia model
# Procedure: (§1) Evaluation of hypocholesterolemic efficacy and safety of pharmaceutical combination was performed in vivo in experimental rat hypercholesterolemia model.
# (§2) For 90 days the studied animals received hypercholesterol diet for pathology induction. The diet included Cholesterol+Cholic acid+Overheated fats (deep fat).
# (§3) Drugs were introduced intragastrically with an esophageal bougie daily on Day 31-90 of the study at the same time of day.
# Biochemical parameters and activity of serum enzymes (aspartate- and alanine aminotransferase, creatine phosphokinase, urea, serum amylase, total bilirubin, direct bilirubin, indirect bilirubin, serum glucose, cations K^+, Na^+).
# 1.0-1.84 ml blood samples for the study of biochemical parameters were taken from tail vein of rats. Blood samples were taken from the animals after 14-15-hour's fasting at same time of day (9.00-11.00). For biochemical parameters tests a Biochemical Analyzer A-25 (Biosystems, Spain) was used.
# Vol. 4. pp. 1794-1798; Pearlman F C and Lee R T Y. Clin Chem 1974, 20, 447-453; Zoppi F et al, Peracino A., Fenili D., Marcovina S. and Ramella C. Giorn It Chim Cl. […] C. et al Clin Chem. 1974. Vol. 20. pp. 470-475; and in Meiattini F., et al, Clin Chem. 1978. Vol. 24. pp. 2161-2165 (total cholesterol); Warnick G R et al. Clin Chem 2001, 47, 1579-96 (HDL/LDL); Bucolo G and David H. Clin Chem. 1973.-Vol. 19. pp. 476-482; and in Fossati P. and, Prencipe L., Clin Chem. 1982. Vol. 28. pp. 2077-2080 (triglycerides); Trinder P. Ann Clin Biochem. 1969. Vol. 6. pp. 24-27).
# [3] = test system: experimental rat hypercholesterolemia model; assay: Lipid spectrum of blood in experimental rat hypercholesterolemia model
# Procedure: The animals used were male rats of Wistar line. […] The proposed model using rats as the experimental animals is a reproducible standard model for evaluation of hypocholesterolemic effect.
# as §1, §2
# For 90 days the animals received the said ration ad libitum (30 g feed per animal). Development of hypercholesterolemia in animals was evaluated based on changes in lipid spectrum parameters on Day 30 of the study.
# as §3
# Biochemical parameters and activity of blood serum enzymes (total cholesterol (CHS), LDL-CHS, HDL-CHS, triglycerides.
# 1.0-1.84 ml blood samples for the study of biochemical parameters were taken from tail vein of rats. Blood samples were taken from the animals after 14-15-hour's fasting at same time of day (9.00-11.00). For biochemical parameters tests a Biochemical Analyzer A-25 (Biosystems, Spain) was used. […]
# [4] = PV + GtA 40 + 108 mg, PV 40 mg, GtA 108 mg
# [5] = group 3 of the rosuvastatin table, 20 mg
# [6] = Day 30 of treatment (Day 60 of study), dose 40 mg
# [7] = blood, Day 60 of the treatment (Day 90 of the study), PV + GtA 40 + 108 mg, PV 20 mg, GtA 108 mg
# [8] = Day 60 of treatment (Day 90 of study), dose 40 mg
# [9] = LV + SGA 20 + 108 mg, LV 20 mg, SGA 108 mg
# [10] = Day 30 of treatment (Day 60 of study), dose 20 mg
# [11] = blood, Day 60 of the treatment (Day 90 of the study), LV + SGA 20 + 108 mg, LV 20 mg, SGA 108 mg
# [12] = Day 60 of treatment (Day 90 of study), dose 20 mg
# [13] = Day 30 of treatment, 20 mg as monotherapy
# [14] = Day 30 of treatment (Day 60 of study), dose 108 mg
# [15] = Day 60 of treatment (Day 90 of study), dose 108 mg
compound,measurement,setting,value
"CC[C@H](C)C(=O)OC1C[C@H](O)C=C2C=C[C@H](C)C(CC[C@@H](O)C[C@@H](O)CC(=O)O)[C@H]21 (stereo in doubt) [PV, (3R,5R)-3,5-dihydroxy-7-((1R,2S,6S,8R,8aR)-6-hydroxy-2-methyl-8-{[(2S)-2-methylbutanoyl]oxy}-1,2,6,7,8,8a-hexahydronaphthalen-1-yl)-heptanoic acid]","weight coefficient, Pancreas",[1]; [4],0.47 ± 0.03^1
same,"weight coefficient, Kidneys",[1]; [4],0.76 ± 0.01
same,"weight coefficient, Liver",[1]; [4],4.47 ± 0.17
same,"weight coefficient, Pancreas",[1]; [5],0.49 ± 0.03^1
same,"weight coefficient, Kidneys",[1]; [5],0.78 ± 0.02
same,"weight coefficient, Liver",[1]; [5],4.49 ± 0.15
same,ALT,[2]; [6],177 U/l
same,AST,[2]; [6],173 U/l
same,Amylase,[2]; [6],641 U/l
same,Bilirubin direct,[2]; [6],2.8 mg/dL
same,Bilirubin indirect,[2]; [6],2.2 mg/dL
same,Bilirubin total,[2]; [6],4.7 mg/dL
same,CPK,[2]; [6],604 U/l
same,Glucose,[2]; [6],150 mg/dL
same,Potassium,[2]; [6],3.4 mM
same,Sodium,[2]; [6],127 mmol
same,Urea,[2]; [6],7.0 mmol/L
same,ALT,[2]; [7],135 U/l
same,AST,[2]; [7],188 U/l
same,Amylase,[2]; [7],586 U/l
same,Bilirubin direct,[2]; [7],2.7 mg/dL
same,Bilirubin indirect,[2]; [7],1.9 mg/dL
same,Bilirubin total,[2]; [7],4.9 mg/dL
same,CPK,[2]; [7],598 U/l
same,Glucose,[2]; [7],160 mg/dL
same,Potassium,[2]; [7],4.3 mM
same,Sodium,[2]; [7],129 mmol
same,Urea,[2]; [7],6.0 mmol/L
same,HDL CHS,[3]; [6],0.65 ± 0.04 mmol/L
same,LDL CHS,[3]; [6],4.12 ± 0.35 mmol/L
same,TG,[3]; [6],1.33 ± 0.12 mmol/L
same,Total CHS,[3]; [6],4.4 ± 0.3 mmol/L
same,HDL CHS,[3]; [8],0.75 ± 0.04 mmol/L
same,LDL CHS,[3]; [8],3.70 ± 0.35 mmol/L
same,TG,[3]; [8],1.33 ± 0.11 mmol/L
same,Total CHS,[3]; [8],4.0 ± 0.3 mmol/L
"CC[C@H](C)C(=O)O[C@H]1C[C@@H](C)C=C2C=C[C@H](C)[C@H](CC[C@@H]3C[C@@H](O)CC(=O)O3)[C@H]21 [LV, (1S,3R,7S,8S,8aR)-8-{2-[(2R,4R)-4-hydroxy-6-oxooxan-2-yl]ethyl}-3,7-dimethyl-1,2,3,7,8,8a-hexahydronaphthalen-1-yl (2S)-2-methylbutanoate]","weight coefficient, Pancreas",[1]; LV 40 mg,0.48 ± 0.03^1
same,"weight coefficient, Kidneys",[1]; LV 40 mg,0.77 ± 0.01
same,"weight coefficient, Liver",[1]; LV 40 mg,4.46 ± 0.15
same,"weight coefficient, Pancreas",[1]; [9],0.35 ± 0.04
same,"weight coefficient, Kidneys",[1]; [9],0.74 ± 0.02
same,"weight coefficient, Liver",[1]; [9],4.45 ± 0.11
same,ALT,[2]; [10],160 U/l
same,AST,[2]; [10],183 U/l
same,Amylase,[2]; [10],646 U/l
same,Bilirubin direct,[2]; [10],2.1 mg/dL
same,Bilirubin indirect,[2]; [10],2.1 mg/dL
same,Bilirubin total,[2]; [10],4.6 mg/dL
same,CPK,[2]; [10],510 U/l
same,Glucose,[2]; [10],139 mg/dL
same,Sodium,[2]; [10],128 mmol
same,Urea,[2]; [10],7.3 mmol/L
same,ALT,[2]; [11],141 U/l
same,AST,[2]; [11],190 U/l
same,Amylase,[2]; [11],597 U/l
same,Bilirubin direct,[2]; [11],4.4 mg/dL
same,Bilirubin indirect,[2]; [11],2.3 mg/dL
same,Bilirubin total,[2]; [11],4.4 mg/dL
same,CPK,[2]; [11],597 U/l
same,Glucose,[2]; [11],148 mg/dL
same,Sodium,[2]; [11],128 mmol
same,Urea,[2]; [11],6.0 mmol/L
same,HDL CHS,[3]; [10],0.64 ± 0.05 mmol/L
same,LDL CHS,[3]; [10],4.25 ± 0.44 mmol/L
same,TG,[3]; [10],1.31 ± 0.12 mmol/L
same,Total CHS,[3]; [10],5.6 ± 0.1 mmol/L
same,HDL CHS,[3]; [6],0.89 ± 0.01 mmol/L
same,LDL CHS,[3]; [6],3.82 ± 0.20 mmol/L
same,TG,[3]; [6],1.22 ± 0.03 mmol/L
same,Total CHS,[3]; [6],4.5 ± 0.2 mmol/L
same,HDL CHS,[3]; [12],0.74 ± 0.04 mmol/L
same,LDL CHS,[3]; [12],3.92 ± 0.43 mmol/L
same,TG,[3]; [12],1.21 ± 0.11 mmol/L
same,Total CHS,[3]; [12],4.8 ± 0.2 mmol/L
same,HDL CHS,[3]; [8],0.90 ± 0.01 mmol/L
same,LDL CHS,[3]; [8],3.43 ± 0.23 mmol/L
same,TG,[3]; [8],1.20 ± 0.03 mmol/L
same,Total CHS,[3]; [8],4.1 ± 0.3 mmol/L
"CCC(C)(C)C(=O)O[C@H]1C[C@@H](C)C=C2C=C[C@H](C)[C@H](CC[C@@H]3C[C@@H](O)CC(=O)O3)[C@H]21 [SV, (1S,3R,7S,8S,8aR)-8-{2-[(2R,4R)-4-hydroxy-6-oxotetrahydro-2H-pyran-2-yl]ethyl}-3,7-dimethyl-1,2,3,7,8,8a-hexahydronaphthalen-1-yl 2,2-dimethylbutanoate]",HDL CHS,[3]; [10],0.82 ± 0.06 mmol/L
same,LDL CHS,[3]; [10],3.75 ± 0.25 mmol/L
same,TG,[3]; [10],1.41 ± 0.11 mmol/L
same,Total CHS,[3]; [10],5.2 ± 0.2 mmol/L
same,HDL CHS,[3]; [6],0.58 ± 0.02 mmol/L
same,LDL CHS,[3]; [6],3.54 ± 0.20 mmol/L
same,TG,[3]; [6],1.27 ± 0.04 mmol/L
same,Total CHS,[3]; [6],4.2 ± 0.2 mmol/L
same,LDL decrease as compared to the control group,[3]; [13],35%
same,TG decrease as compared to the control group,[3]; [13],18%
same,decrease of the concentration of CHS as compared to the control group,[3]; [13],26%
same,increase in concentration of HDL as compared to the control group,[3]; [13],86%
same,HDL CHS,[3]; [12],0.77 ± 0.05 mmol/L
same,LDL CHS,[3]; [12],3.50 ± 0.05 mmol/L
same,TG,[3]; [12],1.43 ± 0.11 mmol/L
same,Total CHS,[3]; [12],4.9 ± 0.3 mmol/L
same,HDL CHS,[3]; [8],0.91 ± 0.02 mmol/L
same,LDL CHS,[3]; [8],3.20 ± 0.1 mmol/L
same,TG,[3]; [8],1.09 ± 0.05 mmol/L
same,Total CHS,[3]; [8],3.8 ± 0.1 mmol/L
"CC1(C)[C@@H](O[C@H]2O[C@H](C(=O)O)[C@@H](O)[C@H](O)[C@H]2O[C@@H]2O[C@H](C(=O)O)[C@@H](O)[C@H](O)[C@H]2O)CC[C@]2(C)[C@H]3C(=O)C=C4[C@@H]5C[C@@](C)(C(=O)O)CC[C@]5(C)CC[C@@]4(C)[C@]3(C)CC[C@@H]12.[Na+] [SGA, sodium glycyrrhizinate]","weight coefficient, Pancreas",[1]; [9],0.22 ± 0.01^2
same,"weight coefficient, Kidneys",[1]; [9],0.81 ± 0.02
same,"weight coefficient, Liver",[1]; [9],4.42 ± 0.10
same,ALT,[2]; [14],91 U/l
same,AST,[2]; [14],125 U/l
same,Amylase,[2]; [14],600 U/l
same,Bilirubin direct,[2]; [14],3.0 mg/dL
same,Bilirubin indirect,[2]; [14],1.2 mg/dL
same,Bilirubin total,[2]; [14],4.3 mg/dL
same,CPK,[2]; [14],308 U/l
same,Glucose,[2]; [14],110 mg/dL
same,Potassium,[2]; [14],2.5 mM
same,Sodium,[2]; [14],132 mmol
same,Urea,[2]; [14],6.8 mmol/L
same,ALT,[2]; [11],102 U/l
same,AST,[2]; [11],123 U/l
same,Amylase,[2]; [11],603 U/l
same,Bilirubin direct,[2]; [11],2.0 mg/dL
same,Bilirubin indirect,[2]; [11],1.9 mg/dL
same,Bilirubin total,[2]; [11],2.9 mg/dL
same,CPK,[2]; [11],331 U/l
same,Glucose,[2]; [11],120 mg/dL
same,Potassium,[2]; [11],3.2 mM
same,Sodium,[2]; [11],121 mmol
same,Urea,[2]; [11],5.2 mmol/L
same,HDL CHS,[3]; [14],0.53 ± 0.04 mmol/L
same,LDL CHS,[3]; [14],4.30 ± 0.41 mmol/L
same,TG,[3]; [14],1.3 ± 0.11 mmol/L
same,Total CHS,[3]; [14],5.0 ± 0.4 mmol/L
same,HDL CHS,[3]; [15],0.63 ± 0.03 mmol/L
same,LDL CHS,[3]; [15],4.00 ± 0.3 mmol/L
same,TG,[3]; [15],1.6 ± 0.11 mmol/L
same,Total CHS,[3]; [15],5.0 ± 0.4 mmol/L
